Legend:
Assay type in all cases: in vivo
[1] = system: Chenopodium album L. (common lambsquarters); assay: Greenhouse postemergence visual injury, common lambsquarters (CHEAL); settings: Compound A 20 g/ha, Example 6
Excerpt: (§1) Seeds of the desired test plant species were planted in a 90:10% v/v (volume/volume) mixture of PRO-MIX® BX (Premier Tech Horticulture, Quakertown, PA, USA) and PROFILE® GREENS GRADE™ (Profile Products LLC, Buffalo Grove, IL, USA) planting mixture, which typically has a pH of 5.2 to 6.2 and an organic matter content of at least 50 percent, in plastic pots with a surface area of 103.2 square centimeters (cm^2). When required to ensure good germination and healthy plants, a fungicide treatment and/or other chemical or physical treatment was applied. The plants were grown for 7-36 days (d) in a greenhouse with an approximate 14-hour (h) photo-period which was maintained at about 23° C. during the day and 22° C. during the night. Nutrients and water were added on a regular basis and supplemental lighting was provided with overhead metal halide 1000-Watt lamps as necessary. The plants were employed for testing when they reached the second or third true leaf stage.
(§2) Emulsifiable concentrates of each of each pyridine carboxylate herbicide (Compound A or Compound B) were prepared at 100 grams acid equivalent per liter (g ae/L). An aliquot of each emulsifiable concentrate was placed in a 25 mL glass vial and diluted with an aqueous mixture of 1.25% (v/v) ACTIROB® B esterified rapeseed oil (Bayer Crop Science, Research Triangle Park, NC, USA) or MSO® Concentrate with LECI-TECH® methylated soybean oil (Loveland Products, Loveland, CO, USA) to obtain concentrated stock solutions at the highest application rate for each herbicide, based upon a 12 milliliter (mL) application volume at a rate of 187 liters per hectare (L/ha). The concentrated stock solutions were further diluted with an aqueous mixture of 1.25% v/v ACTIROB® B or MSO® Concentrate with LECI-TECH® to obtain stock solutions at reduced application rates for each herbicide. Spray solutions of the herbicide combinations (Compound A or Compound B plus safener) were prepared by adding weighed amounts or aliquots of the safener to the stock solutions of Compound A or Compound B to form 12-mL spray solutions in two-way combinations.
(§3) The spray solutions were applied to the plant material with an overhead Mandel track sprayer equipped with 8002E nozzles calibrated to deliver 187 L/ha over an application area of 0.503 square meters (m^2) at a spray height of 18 inches (43 centimeters (cm)) above the average plant canopy. […]
(§4) The treated plants and control plants were placed in a greenhouse as described above and watered by sub-irrigation to prevent wash-off of the test compounds. After 20-22 d, the condition of the test plants as compared with that of the control plants was determined visually and scored on a scale of 0 to 100 percent where 0 corresponds to no injury and 100 corresponds to complete kill.

[2] = system: Erigeron canadensis (Canada horseweed); assay: Greenhouse postemergence visual injury, Canada horseweed (ERICA)
Excerpt: as §1, §2
(§5) The spray solutions were applied to the plant material with an overhead Mandel track sprayer equipped with 8002E nozzles calibrated to deliver 187 L/ha over an application area of 0.503 square meters (m^2) at a spray height of 18 inches (43 centimeters (cm)) above the average plant canopy. Control plants were sprayed in the same manner with the solvent blank. All herbicide (component a) application rates are given as “g ae/ha” and all safener (component b) application rates are given as “g ai/ha.”
as §4

[3] = system: Ambrosia artemisiifolia (common ragweed); assay: Greenhouse postemergence visual injury, common ragweed (AMBEL); settings: Example 7
Excerpt: as §1, §2, §3, §4

Glycine max (soybean) = assay: Greenhouse postemergence visual injury, soybean (GLXMA)
Excerpt: as §1, §2, §5, §4

[4] = system: Amaranthus retroflexus (pigweed); assay: Greenhouse postemergence visual injury, pigweed (AMARE)
Excerpt: as §1, §2, §5, §4

[5] = system: Brassica napus (winter rape); assay: Greenhouse postemergence visual injury, winter rape (BRSNW); settings: Compound A 20 g/ha
Excerpt: as §1, §2, §5, §4

[6] = system: Alopecurus myosuroides (blackgrass); assay: Greenhouse postemergence visual injury, blackgrass (ALOMY); settings: Compound A 20 g/ha, Example 6
Excerpt: as §1, §2, §3, §4

[7] = system: Lolium multiflorum (Italian ryegrass); assay: Greenhouse postemergence visual injury, Italian ryegrass (LOLMU)
Excerpt: as §1, §2, §5, §4

Kochia scoparia (kochia) = assay: Greenhouse postemergence visual injury, kochia (KCHSC); settings: Compound A 20 g/ha, Example 6
Excerpt: as §1, §2, §3, §4

[8] = system: Triticum aestivum (winter wheat); assay: Greenhouse postemergence visual injury, winter wheat (TRZAW)
Excerpt: as §1, §2, §5, §4

[9] = system: Oryza sativa (common rice); assay: Greenhouse postemergence visual injury, rice (ORYSA); settings: Compound A 20 g/ha, Example 6
Excerpt: as §1, §2, §3, §4

[10] = system: Triticum aestivum (spring wheat); assay: Greenhouse postemergence visual injury, spring wheat (TRZAS)
Excerpt: as §1, §2, §5, §4

[11] = system: Amaranthus tamariscinus (common water hemp); assay: Greenhouse postemergence visual injury, common water hemp (AMATA); settings: Example 7
Excerpt: as §1, §2, §3, §4

[12] = system: Sorghum halepense (Johnson grass); assay: Greenhouse postemergence visual injury, Johnson grass (SORHA)
Excerpt: as §1, §2, §5, §4

[13] = system: Cyperus esculentus (nutsedge); assay: Greenhouse postemergence visual injury, nutsedge (CYPES)
Excerpt: as §1, §2, §5, §4

[14] = system: Helianthus annuus (common sunflower); assay: Greenhouse postemergence visual injury, common sunflower (HELAN)
Excerpt: as §1, §2, §5, §4

[15] = system: Ipomoea hederacea (ivyleaf morningglory); assay: Greenhouse postemergence visual injury, ivyleaf morningglory (IPOHE); settings: Compound A 20 g/ha, Example 6
Excerpt: as §1, §2, §3, §4

[16] = system: Abutilon theophrasti (velvetleaf); assay: Greenhouse postemergence visual injury, velvetleaf (ABUTH); settings: Compound A 20 g/ha, Example 6
Excerpt: as §1, §2, §3, §4

N#CCOC(=O)c1nc(-c2ccc3cc[nH]c3c2F)c(F)c(N)c1Cl [Compound A, cyanomethyl 4-amino-3-chloro-5-fluoro-6-(7-fluoro-1H-indol-6-yl)pyridine-2-carboxylate]
% visual injury, Ob [1]: 88% | % visual injury, Ob ([2]; Compound A 10 g/ha, Example 7): 90% | % visual injury, Ob ([2]; Compound A 20 g/ha, Example 6): 95% | % visual injury, Ob ([2]; Compound A 20 g/ha, Example 7): 95% | % visual injury, Ob ([3]; Compound A 10 g/ha): 100% | % visual injury, Ob ([3]; Compound A 20 g/ha): 100% | % visual injury, Ob (Glycine max (soybean); Compound A 10 g/ha, Example 7): 100% | % visual injury, Ob (Glycine max (soybean); Compound A 20 g/ha, Example 6): 100% | % visual injury, Ob (Glycine max (soybean); Compound A 20 g/ha, Example 7): 100% | % visual injury, Ob ([4]; Compound A 20 g/ha, Example 6): 93% | % visual injury, Ob ([4]; Compound A 40 g/ha, Example 4): 100% | % visual injury, Ob ([4]; Compound A 40 g/ha, Example 5): 100% | % visual injury, Ob ([5]; Example 1): 95% | % visual injury, Ob ([5]; Example 6): 85% | % visual injury, Ob [6]: 0% | % visual injury, Ob ([7]; Compound A 10 g/ha, Example 7): 18% | % visual injury, Ob ([7]; Compound A 20 g/ha, Example 6): 5% | % visual injury, Ob ([7]; Compound A 20 g/ha, Example 7): 60% | % visual injury, Ob (Kochia scoparia (kochia)): 97% | % visual injury, Ob ([8]; Compound A 20 g/ha, Example 6): 25% | % visual injury, Ob ([8]; Compound A 40 g/ha, Example 2): 25% | % visual injury, Ob [9]: 10% | % visual injury, Ob ([10]; Compound A 20 g/ha, Example 1): 25% | % visual injury, Ob ([10]; Compound A 40 g/ha, Example 2): 23% | % visual injury, Ob ([10]; Compound A 40 g/ha, Example 4): 30% | % visual injury, Ob ([11]; Compound A 10 g/ha): 98% | % visual injury, Ob ([11]; Compound A 20 g/ha): 100% | % visual injury, Ob ([12]; Compound A 10 g/ha, Example 7): 10% | % visual injury, Ob ([12]; Compound A 20 g/ha, Example 6): 0% | % visual injury, Ob ([12]; Compound A 20 g/ha, Example 7): 60% | % visual injury, Ob ([13]; Compound A 20 g/ha, Example 6): 30% | % visual injury, Ob ([13]; Compound A 40 g/ha, Example 4): 73% | % visual injury, Ob ([13]; Compound A 40 g/ha, Example 5): 73% | % visual injury, Ob ([14]; Compound A 20 g/ha, Example 6): 95% | % visual injury, Ob ([14]; Compound A 40 g/ha, Example 4): 100% | % visual injury, Ob ([14]; Compound A 40 g/ha, Example 5): 100% | % visual injury, Ob [15]: 0% | % visual injury, Ob [16]: 95%

Source: patent publication US12029217B2, “Safened compositions comprising pyridine carboxylate herbicides and isoxadifen” (Corteva Agriscience LLC, priority 2018, dated 2024)
